Assay results taken from patent US9814732B2, “Ulipristal acetate for prevention and treatment of breast tumors” (LABORATOIRE HRA-PHARMA, priority 2012, dated 2017).

Experiments:
T-47D cells = experiment: Apoptosis, sub-G1 quantification by flow cytometry in T-47D cells; type: cell-based, human; settings: 48 h
Protocol: (§1) After seeding, cells were cultured for 24 h in serum and phenol red free medium. Then treatments were carried out in a phenol red free medium containing 5% dextran-charcoal stripped serum. Cells were treated with P or DEX (100 nM), alone or in combination with UPA, RU (1 nM to 1 μM) or CDB-3877 (100 nM). Control cells were treated with ethanol, at […] 1:1000 final ethanol concentration alone as vehicle or E2 (10 nM).
(§2) After 96 h or 48 h of hormonal treatment, respectively, for HBE or MCF-7 and T-47D cells, cells were washed in PBS, matrix dissociated with accutase enzyme (PAA laboratory, Les Mureaux, France), and centrifuged 5 minutes at 1350 rpm. Cells were fixed and frozen at −20° C. in 70% ethanol. Before analysis, cells were washed in PBS and stained with 10 μg/ml propidium iodide in PBS (containing 0.835 U/ml RNase A) (Sigma, St Quentin Fallavier, France). For each sample at least 10 000 cells were counted in a BD LSR II flow cytometer (BD Biosciences, Le Pont de Claix, France). After gating out doublets and debris, cycle distribution was analyzed using the ModFit LT software (Verity Software House, USA).

HBE cells [1] = experiment: Tritiated thymidine incorporation (proliferation) in HBE cells; type: cell-based, human; settings: 96 h
Protocol: as §1
After 24 h of hormonal treatment, cells were incubated with [methyl-1 3H] thymidine (Perkin Elmer, Courtaboeuf, France) for 48 h or 20 h for KBE or cancer cells, respectively at 37° C. After incubation cells were washed twice with PBS 1× and once with 5% trichloroacetic acid (TCA). Cells were incubated in 5% TCA for 15 min at 4° C. and lysed in NaOH 0.1 N for 30 min at 37° C. The total cell lysate was added to 5 ml of Ecolite scintillation liquid (MP biomedical, Illkirch, France) and radioactivity was counted with a β-counter HIDEX 300SL (ScienceTec, Courtaboeuf, France).

HBE cells [2] = experiment: Apoptosis, sub-G1 quantification by flow cytometry in HBE cells; type: cell-based, human; settings: 96 h
Protocol: as §1, §2

[3] = test system: GR target genes (IEX-1, G0S8, cyclin A, BCL2); experiment: qRT-PCR mRNA expression of GR target genes in MCF-7 cells; type: cell-based, human
Protocol: as §1
Total RNA was extracted using TriZOL Reagent (Invitrogen, Cergy-Pontoise, France).
2 μg of total RNA was subjected to reverse transcription (RT) using random primers for 1 h at 37° C. 2 μl of RT product was diluted (1:10) and subjected to quantitative PCR using sequence specific primers (300 nM) and Brillant SYBR GREEN QPCR master mix (Fermentas, Saint-Rémy-lès-Chevreuse, France) on an Mx3000P apparatus (Agilent Technologies, Massy, France). Conditions were 1 cycle at 95° C. for 10 min followed by 40 cycles at 95° C. for 30 sec, 60° C. for 1 min and 72° C. for 30 sec. Gene expression values were normalized to the housekeeping gene 36B4. Time of steroid treatment was chosen to get the optimal stimulation for a given gene. ALPL and G0S8 mRNA were analyzed after 6 h of treatment. IEX-1, FASN, and BCL2 were analyzed after 24 h of treatment. Cyclin A mRNA was analyzed after 24 h for GR responses or 48 h for PR responses.

[4] = test system: human breast tissue carrying BRCA1 mutations, xenografts; experiment: Ki67 mitotic index in BRCA1 mutated human breast tissue xenografted in nude mice; type: in vivo; settings: E2+P+UPA vs E2+P, lobular and ductal cells, 28 days
Protocol: Mitotic index was calculated using the Ki67 antibody, and was determined for each breast tissue grafted into mice. Immunohistochemical analyses were performed using the BOND-MAX workstation (Leica, Nanterre, France). Paraffin sections of breast tissue xenografts were de-waxed and rehydrated before antigen retrieval using citrate retrieval solution (pH 6.0) for Ki67 antibody or EDTA retrieval solution (pH 9.0) for PR and ERalpha antibodies, for 30 min. Sections were then incubated with Ki67 at 1:100 (Novocastra, NCL5 L-Ki67-MM1), PR at 1:80 (Biogenex, MU-328-UC) or ER at 1:300 (Novocastra, NCL-L6 ER-6F11) monoclonal antibodies. For signal detection, the Kit Bond Polymer Refire Detection was used. Reagents were purchased from Menarini-Diagnostic (Rungis, France). A negative control (omitting the first antibody) was included in each set. For each marker, determination of the ratio of positive cells was performed on a total of 1 000 lobular and 1 000 ductal luminal cells in the 4 breast tissue fragments grafted into each mouse. For each experiment, the final percentages for each treatment were the mean of percentages obtained in the four mice per group.
Mutated breast tissue samples were obtained from 5 women (36-57 years old) carrying mutations for BRCA1.
Xenografts were performed as described above (Example 2). […]

HBCx-34 tumors = experiment: HBCx-34 human mammary ductal carcinoma xenograft tumor growth in nude mice; type: in vivo; settings: UPA 130 mg/kg p.o., 42 days
Text: The xenograft model used in this study was HBCx-34. HBCx-34 is a mammary ductal carcinoma with wild type P53, no HER2 overexpression and PR and ERα overexpression. […] HBCx-34 has got no cachectic property.
HBCx-34 tumors (P14.0.0/2) were transplanted subcutaneously onto 5-10 mice (donor mice, passage (n-1), female athymic nude mice (Hsd:Athymic Nude-Fox1nu), 6- to 9-week-old, Harlan Laboratories (Gannat, France)). When these tumors reached 1000 to 2000 mm3 (between 60 to 78 days), donor mice were sacrificed by cervical dislocation, tumors were aseptically excised and dissected. After removing necrotic areas, tumors were cut into fragments measuring approximately 20 mm3 and transferred for 10 min maximum in sterile DMEM/F12 culture medium, without any additional components, before grafting.
Healthy mice aged 6 to 9 weeks and weighing at least 20 g were included in the study. Mice were anaesthetized with ketamine/xylazine, and then skin was aseptized with a chlorhexidine solution, incised at the level of the interscapular region, and a 20 mm3 tumor fragment was placed in the subcutaneous tissue. Skin was closed with clips.
Mice were allocated to different groups according to their tumor volume to give homogenous mean and median tumor volume in each treatment arms. Ten mice/group, with HBCx-34 tumors between 75 and 144 mm^3, were randomized according to their tumor volume into experimental groups, and treatments (UPA 130 mg/kg, p.o. or control vehicle) were initiated 33 days post implantation of the tumor for a total duration of 42 days.
Tumor volume was evaluated biweekly during all the experimental period. Tumors were collected at the end of treatment, weight and processed for analysis.

Structure (SMILES): CC(=O)O[C@]1(C(C)=O)CCC2C3CCC4=CC(=O)CCC4=C3[C@@H](c3ccc(N(C)C)cc3)C[C@@]21C (some centres unmarked) [UPA, 17[…]-acetoxy-11[…]-[4-N,N-dimethylamino-phenyl)-19-norpregna-4,9-diene-3,20-dione]
- cell apoptosis (sub-G1 percentage), compound alone (T-47D cells; 100 nM): had no apoptotic or survival properties by itself
- effect of UPA on P-mediated apoptosis (T-47D cells; P 100 nM + UPA 100 nM): tended to inhibit this effect
- cell proliferation ([3H] thymidine incorporation), compound alone (HBE cells [1]; 100 nM): had no effect on proliferation
- effect of UPA on DEX-mediated proliferation change (HBE cells [1]; DEX 100 nM + UPA 100 nM): inhibited the strong proliferative activity induced by DEX
- effect of UPA on P-mediated proliferation change (HBE cells [1]; P 100 nM + UPA 100 nM): did not inhibit the anti-proliferative effect induced by P
- cell apoptosis (sub-G1 percentage), compound alone (HBE cells [2]; 100 nM): had no apoptotic or survival properties by itself
- effect of UPA on DEX-mediated anti-apoptotic effect (HBE cells [2]; DEX 100 nM + UPA 100 nM): both hormones activities were reversed
- effect of UPA on P-mediated apoptosis (HBE cells [2]; P 100 nM + UPA 100 nM): both hormones activities were reversed
- G0S8 mRNA expression ([3]; DEX and/or UPA 100 nM, 6 h, p<0.001): anti-glucocorticoid activity was strong
- BCL2 mRNA expression (GR response) ([3]; DEX and/or UPA 100 nM, 24 h): partially antagonized this effect
- IEX-1 mRNA expression ([3]; DEX and/or UPA 100 nM, 24 h): did not antagonize this response
- cyclin A mRNA expression (GR response) ([3]; DEX and/or UPA 100 nM, 24 h): partially inhibited DEX effect on cyclin A mRNA expression
- glucocorticoid agonist activity on GR target genes ([3]; UPA 100 nM alone): did not display any glucocorticoid agonist activity
- proliferation (Ki67 mitotic index) stimulated by E2+P [4]: exhibited antiproliferative activity
- ratio of TV in treated vs. control group (T/C) (HBCx-34 tumors): 53%
- increase in mean tumor volume (TV) at the end of treatment (HBCx-34 tumors; control 4.63-fold): 2.17 fold
- mean TV at sacrifice (HBCx-34 tumors; control 625.0±108.6 mm^3): 332.0±61.0 mm^3
